Measured values as given in patent US9493501B2 (MEMORIAL SLOAN-KETTERING CANCER CENTER, priority 2011, dated 2016).
pIC50: −log10 of the molar value.

Biological target: T1, SETD2 (1347-1711) (Homo sapiens, UniProt Q9BYW2)
T1 sequence (Q9BYW2 1347-1711): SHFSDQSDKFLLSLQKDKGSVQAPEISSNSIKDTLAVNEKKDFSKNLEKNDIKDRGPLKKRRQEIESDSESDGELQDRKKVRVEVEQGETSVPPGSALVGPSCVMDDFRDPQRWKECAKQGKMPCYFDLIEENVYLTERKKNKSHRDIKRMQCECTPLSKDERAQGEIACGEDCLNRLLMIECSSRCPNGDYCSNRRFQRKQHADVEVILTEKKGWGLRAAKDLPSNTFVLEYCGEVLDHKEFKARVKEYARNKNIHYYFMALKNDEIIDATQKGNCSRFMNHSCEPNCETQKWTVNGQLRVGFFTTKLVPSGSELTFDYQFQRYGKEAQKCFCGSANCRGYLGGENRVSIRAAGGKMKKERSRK
Assay: Filter-paper methylation assay, SETD2
Assay type: biochemical

With Nc1ncnc2c1ncn2C1OC(CC(CCC(N)C(=O)O)NCc2ccccc2)C(O)C1O (stereo not shown) [Compound 110] as the molecule, how does the pIC50 read?
Its pIC50 is 6.30.
